Assay results reported in US10759721B2, “Deuterated CFTR potentiators” (Vertex Pharmaceuticals (Europe) Limited, priority 2015, dated 2020).
Like-named read-outs stand apart in the source and are kept apart here.

Experiments:
[1] = target: T1, CYP3A4 (Homo sapiens, UniProt P08684); assay: Metabolic stability in human CYP3A4 Supersomes; assay type: in vitro ADME; conditions: recombinant human CYP3A4 Supersomes, pH 7.4, human CYP3A4 Supersomes, read-out: calculated average half-life
T1 construct: purchased BD Biosciences
Experimental: (§1) Stock solutions (7.5 mM) of Compound 100 and Compound A were prepared in DMSO. The 7.5 mM stock solutions were diluted to 12.5 μM in acetonitrile (ACN). The human CYP3A4 Supersomes™ (2000 pmol/mL, purchased from BD Biosciences™) were diluted to 62.5 pmol/mL in 0.1 M potassium phosphate buffer, pH 7.4, containing 3 mM MgCl2. The diluted supersomes were added to wells of a 96-well polypropylene plate in triplicate. A 10 μL aliquot of the 12.5 μM test compound was added to the supersomes and the mixture was pre-warmed for 10 minutes. Reactions were initiated by addition of pre-warmed NADPH solution. The final reaction volume was 0.5 mL and contained 50 pmol/mL CYP3A4 Supersomes™, 0.25 μM test compound, and 2 mM NADPH in 0.1 M potassium phosphate buffer, pH 7.4, and 3 mM MgCl2. The reaction mixtures were incubated at 37° C., and 50 μL aliquots were removed at 0, 3, 7, 10, 20 and 30 minutes and added to 96-well plates which contained 125 μL of ice-cold ACN with internal standard to stop the reactions. The plates were stored at 4° C. for 20 minutes after which 75 μL of water was added to the wells of the plate before centrifugation to pellet precipitated proteins. Supernatants were transferred to another 96-well plate and analyzed for amounts of parent remaining by LC-MS/MS using an AB Sciex QTrap 5500 mass spectrometer.
(§2) The in vitro half-lives (t1/2 values) for test compounds were calculated from the slopes of the linear regression of LN (% parent remaining) vs incubation time relationship: in vitro t1/2=0.693/k, where k=−[slope of linear regression of LN (% parent remaining) vs incubation time].
as §1, with “Compound 120” for “Compound 100”, “Compound B” for “Compound A”

[2] = target: T2, human CYP3A4 Supersomes (Homo sapiens, UniProt P08684); assay: Metabolic stability in human CYP3A4 Supersomes; assay type: in vitro ADME; conditions: for average increase in t1/2 / apparent intrinsic clearance ratio: human CYP3A4 Supersomes; for Clint, app rCYP: human CYP3A4 Supersomes 50 pmol/mL, 0.25 μM test compound, CL int = (0.693/in vitro t1/2)(mL incubation volume/pmol P450)
T2 construct: purchased BD Biosciences
Experimental: as §1, §2
as §1, with “Compound 120” for “Compound 100”, “Compound B” for “Compound A”

[3] = system: patients with cystic fibrosis carrying at least one copy of the G551D-CFTR mutation; conditions: phase III trials; cited from earlier work

T2 sequence (P08684 whole entry): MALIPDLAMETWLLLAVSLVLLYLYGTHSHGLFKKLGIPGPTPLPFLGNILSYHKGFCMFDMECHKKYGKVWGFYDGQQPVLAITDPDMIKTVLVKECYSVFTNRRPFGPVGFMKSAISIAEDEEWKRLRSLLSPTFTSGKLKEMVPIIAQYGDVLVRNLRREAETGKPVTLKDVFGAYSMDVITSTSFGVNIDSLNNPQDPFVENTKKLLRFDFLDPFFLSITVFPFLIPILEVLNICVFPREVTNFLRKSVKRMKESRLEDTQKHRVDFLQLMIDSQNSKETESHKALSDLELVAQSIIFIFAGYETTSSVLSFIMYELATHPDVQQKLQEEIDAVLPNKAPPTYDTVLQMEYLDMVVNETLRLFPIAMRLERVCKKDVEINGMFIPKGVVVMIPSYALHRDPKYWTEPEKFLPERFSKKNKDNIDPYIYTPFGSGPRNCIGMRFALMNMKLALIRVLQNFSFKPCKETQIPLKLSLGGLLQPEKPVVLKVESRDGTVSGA
T1 sequence (P08684 whole entry): as above

With `[2H]C([2H])([2H])C(c1ccc(NC(=O)c2c[nH]c3ccccc3c2=O)cc1O)(C([2H])([2H])[2H])C([2H])([2H])[2H]` [Compound 100, N-(3-Hydroxy-4-(2-(methyl-d3)propan-2-yl-1,1,1,3,3,3-d6)phenyl)-4-oxo-1,4-dihydroquinoline-3-carboxamide] the half-life at 0.25 μM ([1]; text of Example 3) was 26.5 min, the “average increase in t1/2” value ([2]; Compound 100 relative to Compound A) was 75% and the “Clint, app rCYP” value ([2]; Table 2) was 0.26 ± 0.00 µL/min/pmol. The “apparent intrinsic clearance ratio” value ([2]; ratio 100/A) was 0.57 and the “stability in Human CYP3A4 Supersomes relative to Compound A” value ([2]; relative to Compound A) was “more stable”.

With `[2H]C([2H])([2H])C(c1cc(C(F)(F)F)c(NC(=O)c2c[nH]c3ccccc3c2=O)cc1O)(C([2H])([2H])[2H])C([2H])([2H])[2H]` [Compound 120, N-(5-hydroxy-4-(2-(methyl-d3)propan-2-yl-1,1,1,3,3,3-d6)-2-(trifluoromethyl)phenyl)-4-oxo-1,4-dihydroquinoline-3-carboxamide] the half-life at 0.25 μM ([1]; Example 4) was 20.6 min, the “average increase in t1/2” value ([2]; Compound 120 relative to Compound B) was 42% and the “Clint, app rCYP” value ([2]; Table 3) was 0.34 ± 0.00 µL/min/pmol. For the same compound, the apparent intrinsic clearance ratio ([2]; ratio 120/B) was 0.71 and the “stability in Human CYP3A4 Supersomes relative to Compound B” value ([2]; relative to Compound B) was “more stable”.

In the case of `CC(C)(C)c1ccc(NC(=O)c2c[nH]c3ccccc3c2=O)cc1O` [Compound A, N-(4-(tert-butyl)-3-hydroxyphenyl)-4-oxo-1,4-dihydroquinoline-3-carboxamide, reference compound], the half-life at 0.25 μM ([1]; text of Example 3) is reported as 15.1 min and the “Clint, app rCYP” value ([2]; Table 2) is reported as 0.46 ± 0.02 µL/min/pmol.

With `CC(C)(C)c1cc(C(F)(F)F)c(NC(=O)c2c[nH]c3ccccc3c2=O)cc1O` [Compound B, N-(4-(tert-butyl)-5-hydroxy-2-(trifluoromethyl)phenyl)-4-oxo-1,4-dihydroquinoline-3-carboxamide, reference compound] the half-life at 0.25 μM ([1]; Example 4) was 14.5 min and the “Clint, app rCYP” value ([2]; Table 3) was 0.48 ± 0.06 µL/min/pmol.

In the case of `CC(C)(C)c1cc(C(C)(C)C)c(NC(=O)c2c[nH]c3ccccc3c2=O)cc1O` [VX-770, N-(2,4-di-tert-butyl-5-hydroxyphenyl)-4-oxo-1,4-dihydroquinoline-3-carboxamide], the “improvement in lung function and other key indicators of the disease (sweat chloride levels, likelihood of pulmonary exacerbations, body weight)” value [3] is given as “marked levels of improvement”.
